Data set [1] in a line: Mouse weights and body condition, KP and KPM mice. Type of data set: in vivo. Particulars: four weeks of low dose treatment. The protocol: FIG. 11A is a box plot showing tumor burden analysis in KP and KPM mice treated with vehicle (control) or Hsp90i. FIG. 11B is a graph showing the longitudinal analysis of mouse weights with vehicle or Hsp90i in the drinking water. The mice were treated for up to 4 weeks with vehicle control or a low dose of HSP90i. In FIG. 11B, KP and KPM mice were combined for vehicle and control treatment groups.
KP and KPM mice were infected intratracheally with Adenovirus expressing Cre recombinase from an SPC promoter at a titer of 2×10^8 plaque forming units per mouse to initiate tumor formation. 8 weeks following tumor initiation, the cohort was randomized and vehicle (control) or Hsp90i (NVP-HSP990) was administered in the drinking water at a dose of 0.5 mg/kg/day for 4 weeks prior to analysis at 12 weeks post tumor induction.

Data set [2] has as its system SUM159, SKMEL, H838 cells. Kind of data set: Flow cytometry of MHC Class I on human tumor cell lines SUM159, SKMEL, H838. The class given is cell-based. Particulars: low dose, 72 hours. The protocol:
FIGS. 4A-4F are graphs showing low dose administration of HSP90i stimulates antigen presentation of tumor cells. […] FIG. 4C is a line graph showing relative MC38 cell number following exposure to increasing concentrations of Hsp90i; Live cell number was assessed with a standard metabolic dye-based (Alamar blue) assay and cell mass assessed by protein content using sulphorhodamine-B (SRB) assay. Representative histograms showing flow cytometric measurement of relative MHC Class I expression on the surface of triple-negative breast cancer (SUM159) (FIG. 4D), melanoma (SKMEL) (FIG. 4E), and lung adenocarcinoma (H838) (FIG. 4F) cells treated with DMSO (Veh) or low dose HSP990 for 72 hours.
MC38 cells were kindly provided by A. Sharpe from Dana Farber Cancer Institute. Cells were maintained in DMEM supplemented with 10% FBS and penicillin/streptomycin. SUM159, H838, SKMEL, and Colo cells were maintained in RPMI1640 supplemented with 10% FBS and penicillin/streptomycin. Cells were confirmed negative for mycoplasma contamination by PCR-based assay. […] Fluorescence as a measure of relative dye reduction was measured on an Envision plate reader (Perkin Elmer) with excitation at 544 nm and emission readings at 570 nm.
For analysis of MHC Class I surface expression, cells were seeded into 12 well plates (125,000/well). […] Cytometric data were plotted and analyzed with FloJo.

Data set [3] can be described thus: Plasma HSP90i concentration in mice by LC/MS. The class given is in vivo, C57Bl/6 and NOD-SCID mice. Particulars: 0.5 mg/kg/day in drinking water, both strains (C57Bl/6 and NOD-SCID). As to the method: For oral dosing with HSP90i, the average water consumption of the mice was calculated by measuring water bottle weight before and after 72 hours of housing to determine the average consumption per mouse, per day. Across all experiments, C57Cl/6 mice consumed approximately 4 mL every day. Using these water consumption values, and mouse weight, a 4 mg/mL stock solution of NVP-HSP990 (in 100% PEG400) was diluted directly into the drinking water to achieve a target dose of 0.5 mg/kg/day. HSP990 treatment was begun 72 hours prior to implantation of MC38 cells to allow the drug to reach steady state level prior to tumor challenge.
Serum NVP-HSP990 levels were analyzed by sacrificing mice, performing a cardiac puncture, and isolating approximately 500 μL of whole blood. Blood was transferred to EDTA-coated microtubes and placed on ice. After all samples were collected, they were spun at 10,000×g for 15 min. The supernatant plasma was collected and stored at −80° C. until further processing. 2×10 μL aliquots of serum from each animal was extracted with 40 μL of ice cold acetonitrile and shaken for 30 min at 4° C. The acetonitrile solvent was spiked with 10 nM imatinib as an internal standard for mass spectrometry. Following extraction, samples were spun at 20,000×g for 15 min and the de-proteinated supernatant transferred to a clean Eppendorf tube prior to mass spectrometry analysis. […]

The conditions of data set [4]: cited from earlier work.
The conditions of data set [5]: oral, once weekly; cited from earlier work.
Another data set concerns MC38 tumors. Kind of data set: Subcutaneous MC38 tumors in immunocompromised NOD-SCID mice. The class given is in vivo. Particulars: 0.5 mg/kg/day in drinking water.

For the compound `COc1cccc(-c2cc(F)ccc2[C@H]2Cc3nc(N)nc(C)c3C(=O)N2)n1` [NVP-HSP990], the “mouse mass or body condition” value in data set [1] is “minimal effects on mouse mass or body condition”. The “MHC Class I expression on human tumor cell lines from breast, melanocytes and lung” value in data set [2] is recorded as “induced upregulation of MHC Class I expression”. In data set [3], the “plasma concentration of HSP90i” value is about 20 nM. Moreover, the drug half-lives in data set [4] (both doses (50 mg and 2.5 mg)) is 20 to 25 h. For the same compound, the “steady state drug concentration in plasma” value in data set [4] (oral dosing of 2.5 mg) was 20 to 40 nM. In addition, the peak plasma concentration in data set [4] (single oral dose of 2.5 mg, human) is 34 nM. In addition, the “peak plasma drug concentration” value in data set [4] (single orally administered dose of 50 mg, human) is 1.31 µM. In addition, the “single agent MTD/RP2D” value in data set [5] is 50 mg. Besides, the “effect on tumor growth” value with MC38 tumors is reported as “no effect on tumor growth”.

These data come from patent publication US20190365719A1, “COMBINATION TREATMENTS OF HSP90 INHIBITORS FOR ENHANCING TUMOR IMMUNOGENICITY AND METHODS OF USE THEREOF” (Massachusetts Institute of Technology, priority 2018, published 2019).
